Molecular target: Vascular endothelial growth factor receptor 2 (Homo sapiens, UniProt P35968)
Test: VEGF-R2 Receptor-Linked Tyrosine Kinase Assay
Protocol: Compounds were evaluated for their ability to inhibit the kinase activity using an ELISA-based assay. The 96-well microtiter plate is coated with substrate solution. The reaction is initiated by adding recombinant human VEGF-R2 to reaction mixture containing inhibitor compound. After the incubation, the detection antibody, Eu-N1 antiphosphotyrosine (PT66) antibody, was added, and the fluorescence of the resulting solution was measured using the Victor Multilabel Counter.

Chain of Vascular endothelial growth factor receptor 2 (P35968 whole entry): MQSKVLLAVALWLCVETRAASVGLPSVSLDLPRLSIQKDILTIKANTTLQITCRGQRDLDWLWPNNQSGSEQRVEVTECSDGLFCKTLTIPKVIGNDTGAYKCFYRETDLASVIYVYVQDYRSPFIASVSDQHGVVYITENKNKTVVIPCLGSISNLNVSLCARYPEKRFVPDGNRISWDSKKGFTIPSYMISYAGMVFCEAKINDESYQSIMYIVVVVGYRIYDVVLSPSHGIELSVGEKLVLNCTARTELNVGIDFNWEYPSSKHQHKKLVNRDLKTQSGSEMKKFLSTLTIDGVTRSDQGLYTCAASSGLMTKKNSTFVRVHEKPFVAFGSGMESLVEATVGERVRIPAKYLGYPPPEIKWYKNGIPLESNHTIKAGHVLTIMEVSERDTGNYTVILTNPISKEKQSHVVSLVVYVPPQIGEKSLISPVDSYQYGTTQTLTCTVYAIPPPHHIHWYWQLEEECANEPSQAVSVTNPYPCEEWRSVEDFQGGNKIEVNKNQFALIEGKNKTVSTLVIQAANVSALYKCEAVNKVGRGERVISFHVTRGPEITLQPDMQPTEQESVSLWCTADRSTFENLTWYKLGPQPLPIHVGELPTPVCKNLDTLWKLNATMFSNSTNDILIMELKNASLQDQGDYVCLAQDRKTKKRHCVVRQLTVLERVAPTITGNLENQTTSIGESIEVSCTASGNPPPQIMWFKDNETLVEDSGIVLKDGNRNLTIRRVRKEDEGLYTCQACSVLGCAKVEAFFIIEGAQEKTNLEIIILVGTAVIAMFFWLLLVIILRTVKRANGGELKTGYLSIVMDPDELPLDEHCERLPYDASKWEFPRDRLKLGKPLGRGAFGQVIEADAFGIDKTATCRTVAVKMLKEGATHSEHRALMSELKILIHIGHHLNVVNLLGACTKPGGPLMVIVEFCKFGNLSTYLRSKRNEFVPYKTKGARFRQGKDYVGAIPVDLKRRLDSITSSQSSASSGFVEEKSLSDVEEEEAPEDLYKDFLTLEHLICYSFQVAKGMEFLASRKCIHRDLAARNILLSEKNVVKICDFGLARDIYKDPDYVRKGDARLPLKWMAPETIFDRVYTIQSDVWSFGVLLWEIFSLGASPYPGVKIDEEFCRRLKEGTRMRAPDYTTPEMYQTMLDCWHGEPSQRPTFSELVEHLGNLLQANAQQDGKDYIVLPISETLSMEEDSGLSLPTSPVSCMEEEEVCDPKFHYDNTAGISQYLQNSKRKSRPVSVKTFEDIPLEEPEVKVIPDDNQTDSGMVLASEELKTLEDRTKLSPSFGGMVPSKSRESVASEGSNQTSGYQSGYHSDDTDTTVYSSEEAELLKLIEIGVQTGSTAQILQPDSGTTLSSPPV

IC50	Structure (SMILES)
3.38 µM	CC(C)Oc1ccc2c(c1)CCc1c-2c2c(c3c4ccccc4n(CCO)c13)CNC2=O [3-(2-hydroxyethyl)-20-(propan-2-yloxy)-3,13-diazahexacyclo[14.8.0.0^{2,10}.0^{4,9}.0^{11,15}.0^{17,22}]tetracosa-1(16),2(10),4(9),5,7,11(15),17(22),18,20-nonaen-14-one]
4.72 µM	COc1ccc2c(c1)CCc1c-2c2c(c3c4ccccc4n(CCO)c13)CNC2=O [3-(2-hydroxyethyl)-20-methoxy-3,13-diazahexacyclo[14.8.0.0^{2,10}.0^{4,9}.0^{11,15}.0^{17,22}]tetracosa-1(16),2(10),4(9),5,7,11(15),17(22),18,20-nonaen-14-one]

Source: BindingDB's records for doi:10.1021/jm8005838 (Cephalon, 2008)
